Assay results: patent publication US20240224991A9, “NANO-DISPERSION COMPRISING CELLULOSE NANOCRYSTAL AS PESTICIDE/FUNGICIDE CARRIERS FOR AGRICULTURE AND AQUACULTURE” (priority 2022, published 2024)

Tested on: mealworms
Assay: Pest mortality test, mealworms on sprayed spinach leaves
Assay type: in vivo, mealworms (larval form of the mealworm beetles)
Settings: 100 ppm DEL, in 2 hours, FIG. 3C
Protocol: Deltamethrin and permethrin/CNC nano-dispersions with agrochemical and CNC mass ratio of 1:100 were prepared according to the said process in example 5, and they are designated as CNC-DEL and CNC-PER, respectively. The resulting nano-dispersions were diluted to 0.1 wt %, 0.5 wt %, 1.0 wt % and 1.5 wt %, where the corresponding active ingredient concentration was around 10 ppm, 50 ppm, 100 ppm and 150 ppm. To perform the pest control test, fresh spinach leaves were spread on a petri dish (10 cm diameter), then 2 mL of the dispersion was sprayed on top (1 mL) and bottom (1 mL) of the leave surface, and 20 active worms were placed on top of the leaves. The survival rate of the works was recorded at set time intervals. In comparison, the pest control efficiency of 1 wt % CNC (0 ppm DEL) and DEL control (100 ppm DEL) were also investigated and compared with 1.0 wt % CNC-DEL (100 ppm DEL). In addition, the pest control efficiency of CNC-PER was compared with the commercial EC pesticide ORTHO® HOME DEFENSE® MAX™ under the same PER dosage.
Both permethrin and deltamethrin are wide spectrum pesticides that belong to synthetic pyrethroids pesticides. Their mode of action is mainly based on contact and stomach toxicity. The pest control efficiency of CNC-DEL and CNC-PER nano-dispersions were evaluated with two model worms, mealworms and waxworms. […]

`CC1(C)[C@H](C(=O)O[C@H](C#N)c2cccc(Oc3ccccc3)c2)[C@@H]1C=C(Br)Br` [DEL control, Deltamethrin] showed a mortality at 100 ppm of 30%.
